Source: patent US9023838B2, “Crystalline form I rosuvastatin zinc salt” (Egis Gyogyszergyar Nyilvanosan Muekoedoe, priority 2009, dated 2015)
Structures can show the parent of a compound that is named as a salt.

How the values were obtained:
[1] = Chemical stability on storage at 25° C., 60% relative humidity (impurity concentrations); assay type: physicochemical; conditions: for Lactone impurity / M-2 impurity / Total impurities / Total impurities, number of peaks / Change of concentration of impurity M-2 relative to the initial concentration: 25° C.; for Lactone impurity / M-2 impurity / Total impurities / Total impurities, number of peaks: 60% RH; for Increase in the concentration of rosuvastatin lactone: after one month storage; for Change of concentration of impurity M-2 relative to the initial concentration: one month, 60% relative humidity
Protocol: Chemical stability of amorphous and crystalline Form I rosuvastatin zinc salts (2:1) has been determined by challenging said substances at the storage condition of 25° C., 60% relative humidity.

[2] = Hygroscopicity (water absorbed); assay type: physicochemical
[3] = listed as amorphous rosuvastatin zinc salt (2:1)

Row | Compound | Lactone impurity ([1]; 1 month) | M-2 impurity ([1]; 1 month) | Total impurities ([1]; 1 month) | Total impurities, number of peaks ([1]; 1 month) | Lactone impurity ([1]; Initial) | M-2 impurity ([1]; Initial) | Total impurities ([1]; Initial) | Total impurities, number of peaks ([1]; Initial) | Increase in the concentration of rosuvastatin lactone [1, 3] | Change of concentration of impurity M-2 relative to the initial concentration ([1]; listed as amorphous form of rosuvastatin zinc salt) | Amount of water absorbed [2, 3] | Increase in the concentration of rosuvastatin lactone ([1]; listed as crystalline Form I of rosuvastatin zinc salt (2:1)) | Total amount of the impurities and number of the individual impurities during storage, compared with the amorphous form ([1]; during storage) | Change of concentration of impurity M-2 relative to the initial concentration ([1]; listed as crystalline Form I substance) | Amount of water absorbed ([2]; listed as crystalline Form I rosuvastatin zinc salt (2:1))
1 | CC(C)c1nc(N(C)S(C)(=O)=O)nc(-c2ccc(F)cc2)c1/C=C/[C@@H](O)C[C@@H](O)CC(=O)O [Amorphous, 7-[4-(4-fluorophenyl)-6-isopropyl-2-(methanesulfonyl-methyl-amino)-pyrimidin-S-yl]-(3R,5S)-dihydroxy-hept-6-enoic acid zinc salt (2:1), reference compound] | 0.51% | 0.10% | 0.77% | (6 peaks) | 0.10% | 0.03% | 0.38% | (7 peaks) | five-fold increase | three-fold of the initial concentration | 1.88 % by weight | – | – | – | –
2 | CC(C)c1nc(N(C)S(C)(=O)=O)nc(-c2ccc(F)cc2)c1/C=C/[C@@H](O)C[C@@H](O)CC(=O)O [Form I, 7-[4-(4-fluorophenyl)-6-isopropyl-2-(methanesulfonyl-methyl-amino)-pyrimidin-5-yl]-(3R,5S)-dihydroxy-hept-6-enoic acid zinc salt (2:1)] | 0.32% | 0.08% | 0.49% | (3 peaks) | 0.13% | 0.07% | 0.28% | (3 peaks) | – | – | – | much less prone to form lactone of rosuvastatin | significantly lower | practically unchanged | 0.24 % by weight
